Laboratory results from patent US9113629B2, “4-amino-6-(4-substituted-phenyl)-picolinates and 6-amino-2-(4-substituted-phenyl)-pyrimidine-4-carboxylates and their use as herbicides” (DOW AGROSCIENCES LLC, priority 2013, dated 2015).

Legend:
[1] = Post-emergent Test III, herbicidal activity in wheat and barley; format: in vivo, Lolium multiflorum, Lolium rigidum; conditions: Lolium multiflorum, post-emergence, 504 h, read-out: Visual Growth Reduction (%) 21 Days After Application LOLSS; for pest or weed control at 35 g/ha: 35 g ai/ha; for pest or weed control at 70 g/ha: 70 g ai/ha; for pest or weed control at 140 g/ha: 140 g ai/ha
Experimental: (§1) Post-emergent Test III. Seeds of the desired test plant species were planted in Sun Gro MetroMix® 306 planting mixture, which typically has a pH of 6.0 to 6.8 and an organic matter content of about 30 percent, in plastic pots with a surface area of 103.2 square centimeters (cm^2). When required to ensure good germination and healthy plants, a fungicide treatment and/or other chemical or physical treatment was applied. The plants were grown for 7-36 days (d) in a greenhouse with an approximate 14 hour (h) photoperiod which was maintained at about 18° C. during the day and 17° C. during the night. Nutrients and water were added on a regular basis and supplemental lighting was provided with overhead metal halide 1000-Watt lamps as necessary. The plants were employed for testing when they reached the second or third true leaf stage.
(§2) A weighed amount, determined by the highest rate to be tested, of each test compound was placed in a 25 mL glass vial and was dissolved in 4 mL of a 97:3 v/v mixture of acetone and DMSO to obtain concentrated stock solutions. […] The concentrated stock solutions obtained were diluted with 20 mL of an aqueous mixture containing acetone, water, isopropyl alcohol, DMSO, Agri-Dex crop oil concentrate, and X-77 surfactant in a 48:39:10:1.5:1.5:0.02 v/v ratio to obtain spray solutions containing the highest application rates. Additional application rates were obtained by serial dilution of 12 mL of the high rate solution into a solution containing 2 mL of 97:3 v/v mixture of acetone and DMSO and 10 mL of an aqueous mixture containing acetone, water, isopropyl alcohol, DMSO, Agri-Dex crop oil concentrate, and X-77 surfactant in a 48:39:10:1.5:1.5:0.02 v/v ratio to obtain ½×, ¼×, ⅛× and 1/16× rates of the high rate. Compound requirements are based upon a 12 mL application volume at a rate of 187 liters per hectare (L/ha). Formulated compounds were applied to the plant material with an overhead Mandel track sprayer equipped with 8002E nozzles calibrated to deliver 187 L/ha over an application area of 0.503 square meters at a spray height of 18 inches (43 cm) above the average plant canopy height. Control plants were sprayed in the same manner with the solvent blank.
(§3) The treated plants and control plants were placed in a greenhouse as described above and watered by subirrigation to prevent wash-off of the test compounds. After 21 d, the condition of the test plants as compared with that of the untreated plants was determined visually and scored on a scale of 0 to 100 percent where 0 corresponds to no injury and 100 corresponds to complete kill.
(§4) By applying the well-accepted probit analysis as described by J. Berkson in Journal of the American Statistical Society, 48, 565 (1953) and by D. Finney in “Probit Analysis” Cambridge University Press (1952), herbicidal injury of a specific compound at various rates can be used to calculate GR20, GR50, GR80 and GR90 values, which are defined as growth reduction factors that correspond to the effective dose of herbicide required to provide plant growth reduction (GR) of 20 percent, 50 percent, 80 percent and 90 percent, respectively. Probit analysis was applied to data collected from multiple dose rates of individual compounds utilizing the procedures explained in the following examples. The analysis of those dose rates is captured in the following tables.

[2] = system: APESV: bentgrass (Apera spica-venti); assay: as above; format: in vivo; conditions: for pest or weed control at 35 g/ha / pest or weed control at 70 g/ha / pest or weed control at 140 g/ha: Apera spica-venti, post-emergence, 504 h, read-out: Visual Growth Reduction (%) 21 Days After Application APESV; for pest or weed control at 35 g/ha: 35 g ai/ha; for pest or weed control at 70 g/ha: 70 g ai/ha; for pest or weed control at 140 g/ha: 140 g ai/ha; for GR50 APESV / GR80 APESV: probit analysis, 21 days after application; for GR50 APESV: dose for growth reduction of 50 percent; for GR80 APESV: dose for growth reduction of 80 percent
Experimental: as §1, §2, §3, §4

[3] = system: HORSS: barley, including spring and winter (Hordeum vulgare); assay: as above; format: in vivo; conditions: for pest or weed control at 35 g/ha / pest or weed control at 70 g/ha / pest or weed control at 140 g/ha: Hordeum vulgare, post-emergence, 504 h, read-out: Visual Growth Reduction (%) 21 Days After Application HORSS; for pest or weed control at 35 g/ha: 35 g ai/ha; for pest or weed control at 70 g/ha: 70 g ai/ha; for pest or weed control at 140 g/ha: 140 g ai/ha; for GR20 HORSS: probit analysis, dose for growth reduction of 20 percent, 21 days after application, crop
Experimental: as §1, §2, §3, §4

[4] = system: KCHSC: kochia (Kochia scoparia); assay: as above; format: in vivo; conditions: for pest or weed control at 35 g/ha / pest or weed control at 70 g/ha / pest or weed control at 140 g/ha: Bassia scoparia, post-emergence, 504 h, read-out: Visual Growth Reduction (%) 21 Days After Application KCHSC; for pest or weed control at 35 g/ha: 35 g ai/ha; for pest or weed control at 70 g/ha: 70 g ai/ha; for pest or weed control at 140 g/ha: 140 g ai/ha; for GR50 KCHSC / GR80 KCHSC: probit analysis, 21 days after application; for GR50 KCHSC: dose for growth reduction of 50 percent; for GR80 KCHSC: dose for growth reduction of 80 percent
Experimental: as §1, §2, §3, §4

[5] = system: LOLSS: ryegrass including, Italian ryegrass (Lolium multiflorum), rigid ryegrass (Lolium rigidum), annual ryegrass (Lolium multiflorum subsp. Gaudini); assay: as above; format: in vivo; conditions: probit analysis, 21 days after application; for GR50 LOLSS: dose for growth reduction of 50 percent; for GR80 LOLSS: dose for growth reduction of 80 percent
Experimental: as §1, §2, §3, §4

[6] = system: MATSS: scented mayweed (Matricaria chamomilla), pineappleweed (Matricaria matricarioides); assay: as above; format: in vivo; conditions: for pest or weed control at 35 g/ha / pest or weed control at 70 g/ha / pest or weed control at 140 g/ha: Matricaria chamomilla, post-emergence, 504 h, read-out: Visual Growth Reduction (%) 21 Days After Application MATSS; for pest or weed control at 35 g/ha: 35 g ai/ha; for pest or weed control at 70 g/ha: 70 g ai/ha; for pest or weed control at 140 g/ha: 140 g ai/ha; for GR50 MATSS / GR80 MATSS: probit analysis, 21 days after application; for GR50 MATSS: dose for growth reduction of 50 percent; for GR80 MATSS: dose for growth reduction of 80 percent
Experimental: as §1, §2, §3, §4

[7] = system: SETVI: green foxtail (Setaria viridis); assay: as above; format: in vivo; conditions: for pest or weed control at 35 g/ha / pest or weed control at 70 g/ha / pest or weed control at 140 g/ha: Setaria viridis, post-emergence, 504 h, read-out: Visual Growth Reduction (%) 21 Days After Application SETVI; for pest or weed control at 35 g/ha: 35 g ai/ha; for pest or weed control at 70 g/ha: 70 g ai/ha; for pest or weed control at 140 g/ha: 140 g ai/ha; for GR50 SETVI / GR80 SETVI: probit analysis, 21 days after application; for GR50 SETVI: dose for growth reduction of 50 percent; for GR80 SETVI: dose for growth reduction of 80 percent
Experimental: as §1, §2, §3, §4

[8] = system: TRZSS: wheat, including spring and winter (Triticum aestivum); assay: as above; format: in vivo; conditions: for pest or weed control at 35 g/ha / pest or weed control at 70 g/ha / pest or weed control at 140 g/ha: Triticum aestivum, post-emergence, 504 h, read-out: Visual Growth Reduction (%) 21 Days After Application TRZSS; for pest or weed control at 35 g/ha: 35 g ai/ha; for pest or weed control at 70 g/ha: 70 g ai/ha; for pest or weed control at 140 g/ha: 140 g ai/ha; for GR20 TRZSS: probit analysis, dose for growth reduction of 20 percent, 21 days after application, crop
Experimental: as §1, §2, §3, §4

| Structure (SMILES) | pest or weed control at 35 g/ha [1] | pest or weed control at 70 g/ha [1] | pest or weed control at 140 g/ha [1] | pest or weed control at 35 g/ha [2] | pest or weed control at 70 g/ha [2] | pest or weed control at 140 g/ha [2] | GR50 APESV [2] | GR80 APESV [2] | pest or weed control at 35 g/ha [3] | pest or weed control at 70 g/ha [3] | pest or weed control at 140 g/ha [3] | GR20 HORSS [3] | pest or weed control at 35 g/ha [4] | pest or weed control at 70 g/ha [4] | pest or weed control at 140 g/ha [4] | GR50 KCHSC [4] | GR80 KCHSC [4] | GR50 LOLSS [5] | GR80 LOLSS [5] | pest or weed control at 35 g/ha [6] | other results |
| --- | --- | --- | --- | --- | --- | --- | --- | --- | --- | --- | --- | --- | --- | --- | --- | --- | --- | --- | --- | --- | --- |
| COC(=O)c1nc(-c2ccc(I)cc2)c(F)c(N)c1Cl [Compound 118, Methyl 4-amino-6-(4-iodophenyl)-3-chloro-5-fluoropicolinate] | 30 to 44% | 60 to 74% | 75 to 84% | 60 to 74% | 75 to 84% | 85 to 94% | 22 g ai/ha | 60 g ai/ha | 85 to 94% | 85 to 94% | 85 to 94% | 1 g ai/ha | 85 to 94% | 85 to 94% | 95 to 100% | 3 g ai/ha | 17 g ai/ha | 49 g ai/ha | 121 g ai/ha | 60 to 74% | pest or weed control at 70 g/ha [6]: 75 to 84%; pest or weed control at 140 g/ha [6]: 85 to 94%; GR50 MATSS [6]: 14 g ai/ha; GR80 MATSS [6]: 60 g ai/ha; pest or weed control at 35 g/ha [7]: 0 to 29%; pest or weed control at 70 g/ha [7]: 30 to 44%; pest or weed control at 140 g/ha [7]: 60 to 74%; GR50 SETVI [7]: 91 g ai/ha; GR80 SETVI [7]: 184 g ai/ha; pest or weed control at 35 g/ha [8]: 75 to 84%; pest or weed control at 70 g/ha [8]: 85 to 94%; pest or weed control at 140 g/ha [8]: 85 to 94%; GR20 TRZSS [8]: 0 g ai/ha |
| COC(=O)c1nc(-c2ccc(Br)cc2)c(F)c(N)c1Cl [Compound 138, Methyl 4-amino-6-(4-bromophenyl)-3-chloro-5-fluoropicolinate] | 60 to 74% | 75 to 84% | 85 to 94% | 85 to 94% | 85 to 94% | 95 to 100% | 2 g ai/ha | 12 g ai/ha | 85 to 94% | 85 to 94% | 95 to 100% | 1 g ai/ha | 95 to 100% | 95 to 100% | 95 to 100% | 1 g ai/ha | 4 g ai/ha | 20 g ai/ha | 66 g ai/ha | 60 to 74% | pest or weed control at 70 g/ha [6]: 85 to 94%; pest or weed control at 140 g/ha [6]: 85 to 94%; GR50 MATSS [6]: 16 g ai/ha; GR80 MATSS [6]: 51 g ai/ha; pest or weed control at 35 g/ha [7]: 85 to 94%; pest or weed control at 70 g/ha [7]: 85 to 94%; pest or weed control at 140 g/ha [7]: 95 to 100%; GR50 SETVI [7]: 8 g ai/ha; GR80 SETVI [7]: 32 g ai/ha; pest or weed control at 35 g/ha [8]: 85 to 94%; pest or weed control at 70 g/ha [8]: 85 to 94%; pest or weed control at 140 g/ha [8]: 85 to 94%; GR20 TRZSS [8]: 1 g ai/ha |
